Assay results: patent publication US20120213707A1, “Riboflavin Based Aerosol and Use as Placebo in Trials” (MPEX PHARMACEUTICALS, INC., priority 2009, published 2012)

What was measured:
Sprague-Dawley rats = experiment: 28-day aerosolized liquid inhalation (nose-only) toxicity study in Sprague-Dawley rats; format: in vivo
From the text: The objective of the study was to determine the toxicity and toxicokinetic profile of the test article, riboflavin 5′-phosphate, following inhalation (nose-only) administration to rats for 28 consecutive days.
Test Article: riboflavin 5′-phosphate sodium salt hydrate; alternate identity: vitamin B2 phosphate; description: yellow crystals; potency: 74%. Vehicle article: saline (0.9% (w/v) NaCl for injection); description: clear colorless solution. Test system: rat (rattus norvegicus); strain: Sprague-Dawley Crl:CD (SD).
(§1) The test (0.5 mg/mL, 2.0 mg/mL, 5.0 mg/mL) and/or vehicle control formulations (0 mg/mL) for each group were prepared fresh daily on each day by dissolving the test article in saline. All prepared test article formulations were protected from light and kept at room temperature (RT).
Treatment: Daily inhalation by nose-only exposure for 60 minutes. Duration of treatment: 28 Days.
The aerosol was produced by metering the flow of the test article or vehicle formulations to 3 clinical nebulizers (Sidestream) connected to high velocity airstreams (10 L/min to each nebuliser). The aerosol produced was discharged through a 40 mm diameter tube into a flow-past inhalation exposure system. The airflow rate through the exposure system was monitored and recorded manually during the aerosol generation. Airflow to the exposure system was controlled by the absolute volume of air supplying the aerosol generators using variable area flow meters.
Assessments of mortality, clinical signs, body weights, food consumption, ophthalmology, functional observation battery and clinical chemistry, hematology, coagulation and urinalysis were performed. Plasma prepared from blood samples were collected from designated animals on the first and last days of the study and analyzed for Riboflavin 5′-phosphate content and toxicokinetic evaluation. All toxicology (main study) animals were euthanized upon completion of the 28-day treatment period and selected tissues were retained, weighed and examined microscopically. Toxicokinetic animals were euthanized following completion of blood sampling and were not subjected to necropsy examination or tissue collection. The following tables summarize tests, methods, and abbreviations used in hematology tests (Table 3), coagulation tests (Table 4), clinical chemistry tests (Table 5), and urinalysis (Table 6).

[1] = Toxicokinetics in dogs: plasma riboflavin 5′-phosphate and metabolite riboflavin after aerosolized doses for 28 days; format: in vivo, Dog (Canis familiaris)
Protocol: Duration of treatment: 28 days. Test system: Dog (Canis familiaris); strain: Beagle.
A series of 9 blood samples (approximately 2.0 mL each) were removed from each dog on each of Days 1 and 28 of the treatment period. For this purpose, each dog was bled by venipuncture and the samples were collected into tubes containing the anticoagulant, Sodium Heparin. Tubes were placed immediately on wet ice pending processing within 30 minutes of collection. On each occasion, samples were collected at pre-dose, immediately post exposure (IPD), 15 and 30 minutes, 1, 2, 4, 6 and 24 hours post exposure. Following collection, the samples were centrifuged (approximately 4° C.) and the resulting plasma was recovered and stored frozen at ITR (approximately −20° C.) in labeled tubes protected from light pending shipment (on dry ice).

[2] = Stability of dosing formulations in saline; format: physicochemical; settings: saline formulations 0.5-5.0 mg/mL, refrigerated at least 48 hours or room temperature on day of preparation
Protocol: as §1
Analyses determined that all formulations were within acceptance criteria ranges (±10%). The formulation concentrations ranged between 94.4 and 106.4% of nominal concentrations and therefore considered acceptable.
Analyses determined that all formulations were within acceptance criteria ranges (±10%). The formulation concentrations ranged between 94.9 and 104.5% of nominal concentrations and were therefore considered acceptable. […]

[3] = Aerosol particle size distribution, dog oronasal exposure system (7-Stage Mercer Cascade Impactor); format: physicochemical
From the text: The aerosol was produced by metering the flow of the test and control article formulations to 3 clinical nebulizers (Sidestream). The aerosol produced was discharged through a 40 mm diameter tube into a flow-past inhalation exposure system. The airflow rate through the exposure system was monitored and recorded manually during the aerosol generation. Airflow to the exposure system was controlled by the absolute volume of air supplying the aerosol generators using variable area flow meters. Control of the aerosol exhaust flow from the animal exposure system was achieved using an exhaust valve. The system provided a minimum of 6 L/min of aerosol to each animal exposure position and the inlet and outlet airflows were balanced to ensure that there was no dilution of the generated aerosol by air drawn from the environment. Any minor variations in flow were buffered by a balloon reservoir. An equal delivery of aerosol to each exposure position was achieved by employing a distribution network that was identical for each individual exposure position attached to the system.
Determinations of aerosol concentration, particle size distribution, oxygen concentration, relative humidity and temperature were performed on test atmosphere samples collected from a representative port of the exposure system, with a collection sample flow-rate of 1 L/min. The sample flow rates were precisely controlled using variable area flow meters that were calibrated before use using a primary airflow calibrator. The absolute volume of each aerosol concentration sample was measured using a wet type gas meter.
The distribution of particle size in the generated aerosols for Groups 2 to 4 were measured weekly during the treatment period by collecting samples into a 7-Stage Mercer Cascade Impactor and the particle size of aerosolized Riboflavin 5′-phosphate was determined using a validated analytical. The distribution of particle size in the generated aerosols for Group 1 were estimated once weekly by gravimetric determination. The MMAD and the Geometric Standard Deviation (GSD) were calculated based on the results obtained from the impactor using a log-probit transformation.

[4] = Group 2 Low Dose, 0.5 mg/mL formulation
[5] = Group 3 Mid Dose, 2.0 mg/mL formulation
[6] = Group 4 High Dose, 5.0 mg/mL formulation

For `Cc1cc2nc3c(=O)[nH]c(=O)nc-3n(C[C@H](O)[C@H](O)[C@H](O)COP(=O)(O)O)c2cc1C` [riboflavin 5′-phosphate], the “No Observed Effect Level (NOEL)” value (Sprague-Dawley rats; Sprague-Dawley rats, once daily inhaled, 28 consecutive days, high dose group) was 2.479 mg/kg/day, the clinical chemistry (Sprague-Dawley rats; rat, in vivo) was “no changes noted in any clinical chemistry parameters that were considered to be treatment-related” and the coagulation times (Sprague-Dawley rats; rat, in vivo) was “unaffected by treatment”. For the same compound, the functional observation battery (Sprague-Dawley rats; rat, in vivo) was “no changes noted in any functional observation battery parameters that were considered to be treatment-related”, the hematology (Sprague-Dawley rats; rat, in vivo) was “no changes noted in any haematology parameters that were considered to be treatment-related” and the “macroscopic findings at necropsy” value (Sprague-Dawley rats; rat, in vivo) was “no findings attributed to the test article administration”. The microscopic findings (Sprague-Dawley rats; rat, in vivo) was “no microscopic findings that were considered to be test article related”, the urinalysis (Sprague-Dawley rats; rat, in vivo) was “no changes in any of the urinalysis parameters evaluated that were considered affected by treatment” and the adverse effects (Sprague-Dawley rats; rat, in vivo, 2.4 mg/kg/day) was “no adverse effects were observed”. The mortality (Sprague-Dawley rats; rats, 0.244 mg/kg/day, considered accidental (restraint), not test article related) was “One male rat dosed at 0.244 mg/kg/day was found dead on Day 12”, the “local or systemic toxicity (histology of lymphoid and respiratory tract tissues)” value (Sprague-Dawley rats; rats, 28 days inhalation) was “no indications of local or systemic toxicity” and the tolerability (Sprague-Dawley rats; rats, nose-only inhalation, 28 consecutive days) was “well tolerated”. For the same compound, the “accumulation following repeated dosing” value ([1]; 28 days) was “no accumulation”, the “gender related difference of riboflavin plasma exposure” value ([1]; Day 1, single administration) was “no observed apparent gender related difference” and the “dose dependence of riboflavin plasma exposures (Cmax and AUC(0-T))” value ([1]; both sexes, Day 1) was “increased as a function of the administered doses”. The “dose dependence of riboflavin plasma exposures (Cmax and AUC(0-T))” value ([1]; both sexes, Day 28) was “increased as a function of the administered doses”, the “dose proportionality of riboflavin exposures (Cmax and AUC(0-T))” value ([1]; both sexes, overall) was “appeared to be dose proportional” and the “gender difference in riboflavin exposure” value ([1]; overall) was “no gender difference in riboflavin exposure”. The “riboflavin 5′-phosphate concentrations in plasma of treated animals” value ([1]; single or repeated exposures) was “detected in only a single treated animal”, the formulation stability ([2]; dog study) was “stable” and the formulation stability ([2]; rat study) was “stable”. The “% of particles <3.1 μm” value [3, 4] was 91.1%, the MMAD [3, 4] was 1.1 μm and the “% of particles <3.1 μm” value [3, 5] was 93.3%. For the same compound, the MMAD [3, 5] was 1.1 μm, the “% of particles <3.1 μm” value [3, 6] was 87.2% and the MMAD [3, 6] was 1.2 μm.
